# Measured values as given in patent US20050197350A1, “Novel quinoline, tetrahydroquinazoline, and pyrimidine derivatives and methods of treatment related to the use thereof” (TAISHO PHARMACEUTICAL CO., LTD., priority 2003, published 2005).
# Test system: MCH receptors
# Assay: MCH receptor activity class (method not given)
# Conditions: MCH receptor; class by percent of control at 10^-7 M or IC50
row,Compound,class
1,CN(C)c1nc(N[C@H]2CC[C@@H](NC(=S)Nc3cccc(C(F)(F)F)c3)CC2)nc2c1CCCC2 [compound 1957],3 (Class 3 The value of percent of control at 10^−7 M was more than 60% or the value of IC50 was more than 200 nM.)
2,Cc1ccc(NC(=S)N[C@H]2CC[C@@H](Nc3nc4c(c(N(C)C)n3)CCCC4)CC2)cc1 [compound 1959],3 (Class 3 The value of percent of control at 10^−7 M was more than 60% or the value of IC50 was more than 200 nM.)
3,Cc1ccccc1NC(=S)N[C@H]1CC[C@@H](Nc2nc3c(c(N(C)C)n2)CCCC3)CC1 [compound 1960],3 (Class 3 The value of percent of control at 10^−7 M was more than 60% or the value of IC50 was more than 200 nM.)
4,CN(C)c1nc(N[C@H]2CC[C@@H](NC(=S)NC(C)(C)C)CC2)nc2c1CCCC2 [compound 1961],3 (Class 3 The value of percent of control at 10^−7 M was more than 60% or the value of IC50 was more than 200 nM.)
5,CN(C)c1nc(N[C@H]2CC[C@@H](NC(=S)Nc3ccccc3Br)CC2)nc2c1CCCC2 [compound 1963],3 (Class 3 The value of percent of control at 10^−7 M was more than 60% or the value of IC50 was more than 200 nM.)
6,CN(C)c1nc(N[C@H]2CC[C@@H](NC(=S)Nc3ccccc3Cl)CC2)nc2c1CCCC2 [compound 1964],3 (Class 3 The value of percent of control at 10^−7 M was more than 60% or the value of IC50 was more than 200 nM.)
7,CN(C)c1nc(N[C@H]2CC[C@@H](NC(=S)NCCc3ccccc3)CC2)nc2c1CCCC2 [compound 1965],3 (Class 3 The value of percent of control at 10^−7 M was more than 60% or the value of IC50 was more than 200 nM.)
8,CCc1ccc(NC(=S)N[C@H]2CC[C@@H](Nc3nc4c(c(N(C)C)n3)CCCC4)CC2)cc1 [compound 1966],3 (Class 3 The value of percent of control at 10^−7 M was more than 60% or the value of IC50 was more than 200 nM.)
9,CSc1ccccc1NC(=S)N[C@H]1CC[C@@H](Nc2nc3c(c(N(C)C)n2)CCCC3)CC1 [compound 1967],3 (Class 3 The value of percent of control at 10^−7 M was more than 60% or the value of IC50 was more than 200 nM.)
10,CN(C)c1nc(N[C@H]2CC[C@@H](NC(=S)Nc3ccccc3OC(F)(F)F)CC2)nc2c1CCCC2 [compound 1968],3 (Class 3 The value of percent of control at 10^−7 M was more than 60% or the value of IC50 was more than 200 nM.)
11,CN(C)c1nc(N[C@H]2CC[C@@H](NC(=S)Nc3ccccc3C(F)(F)F)CC2)nc2c1CCCC2 [compound 1969],3 (Class 3 The value of percent of control at 10^−7 M was more than 60% or the value of IC50 was more than 200 nM.)
12,CN(C)c1nc(N[C@H]2CC[C@@H](NC(=S)Nc3ccc(F)c(F)c3F)CC2)nc2c1CCCC2 [compound 1970],3 (Class 3 The value of percent of control at 10^−7 M was more than 60% or the value of IC50 was more than 200 nM.)
13,CN(C)c1nc(N[C@H]2CC[C@@H](NC(=S)Nc3cccc(Cl)c3Cl)CC2)nc2c1CCCC2 [compound 1971],3 (Class 3 The value of percent of control at 10^−7 M was more than 60% or the value of IC50 was more than 200 nM.)
14,CN(C)c1nc(N[C@H]2CC[C@@H](NC(=S)Nc3ccc(F)cc3F)CC2)nc2c1CCCC2 [compound 1972],3 (Class 3 The value of percent of control at 10^−7 M was more than 60% or the value of IC50 was more than 200 nM.)
15,COc1ccc(OC)c(NC(=S)N[C@H]2CC[C@@H](Nc3nc4c(c(N(C)C)n3)CCCC4)CC2)c1 [compound 1973],3 (Class 3 The value of percent of control at 10^−7 M was more than 60% or the value of IC50 was more than 200 nM.)
16,CN(C)c1nc(N[C@H]2CC[C@@H](NC(=S)Nc3c(F)cccc3F)CC2)nc2c1CCCC2 [compound 1974],3 (Class 3 The value of percent of control at 10^−7 M was more than 60% or the value of IC50 was more than 200 nM.)
17,CN(C)c1nc(N[C@H]2CC[C@@H](NC(=S)Nc3ccc([N+](=O)[O-])cc3Cl)CC2)nc2c1CCCC2 [compound 1975],3 (Class 3 The value of percent of control at 10^−7 M was more than 60% or the value of IC50 was more than 200 nM.)
